Measurements from patent US8586369B2, “Ion channel-forming peptides” (The Regents of the University of California, priority 2007, dated 2013).

What was measured:
Type in all cases: biochemical
[1] = Single-channel conductance in negatively charged planar bilayers (50% POPE, 50% DOPS); conditions: 0.01 M KCl, 0.1 mM HEPES pH 7.4
Excerpt: The data acquisition boards for both amplifiers were set to a sampling frequency of 15 kHz.

[2] = Single-channel conductance in bilayers with positively-charged headgroups (10% DODAP, 90% DiPhyPC); conditions: 20 mM KCl
Method: The conductance of gA-gA and 2-2 in lipid bilayers that contained 10% of a lipid with positively-charged headgroups (here, 1,2-dioleoyl-3-(dimethylamino)propane, DODAP, and 90% DiPhyPC) was measured.
Formation of planar lipid bilayers: We formed most planar lipid bilayers with the “folding technique.” We used a Teflon film (Eastern Scientific Inc, pore diameter 0.18-0.25 mm) was pretreated on each side with 2.5 μL of 5% hexadecane in pentane and air dried. This film was mounted using vacuum grease (Dow Corning, High vacuum grease) to a custom made Teflon chamber separating two buffer compartments each with a volume capacity of 4 mL. […]
Ion channel measurements: We performed single channel recordings in “voltage clamp mode” using Ag/AgCl electrodes (Warner Instruments) in each compartment of the bilayer chambers. […] The current traces we used to generate all data that was recorded at applied potentials s 50 mV were filtered at 10 Hz. […]

[3] = Single-channel conductance of homodimeric gA pores in planar lipid bilayers made from DiPhyPC (Example 1); conditions: for Single-channel conductance γ: HEPES pH 7.4, DiPhyPC bilayers, slope of I-V curves; for γ-ratio to gA-gA: pH 7.4, DiPhyPC
Method: Formation of planar lipid bilayers: We formed most planar lipid bilayers with the “folding technique.” We used a Teflon film (Eastern Scientific Inc, pore diameter 0.18-0.25 mm) was pretreated on each side with 2.5 μL of 5% hexadecane in pentane and air dried. This film was mounted using vacuum grease (Dow Corning, High vacuum grease) to a custom made Teflon chamber separating two buffer compartments each with a volume capacity of 4 mL. After adding 1 mL of electrolyte (0.01 M to 1.00 M KCl buffered with HEPES pH 7.4) to each compartment, lipids were spread from a solution in pentane onto the surface of the electrolyte solutions (specifically, 4-6 μL from 25 mg mL-l solution DiPhyPC or from 6.25 mg mL-l each of 50% DOPS and 50% POPE or from 25 mg mL-l DODAP mixed with 25 mg mL-l DiPhyPC in a 1:9 ratio. Three additional milliliters of electrolyte solution were added to each side of the chamber to raise the liquid levels above the aperture. We formed the bilayers from apposition of two monolayers of lipids using the method described by Montal et al. (Proc. Natl. Acad. Sci. U.S.A. 1972, 69, 3561-3566). Briefly, bilayers were obtained by consecutively raising the liquid level in each compartment until the pore was completely covered by electrolyte. If at this point the pore was not closed by a lipid bilayer, then the liquid level in one or both compartments was lowered below the pore level by aspirating electrolyte into a 3 mL syringe, followed by raising the electrolyte solution again.
Planar lipid bilayers were also made with the “painting technique”. We pretreated each side of a pore in a bilayer cup (Warner Instruments, Delrin perfusion cup, volume 1 mL, pore diameter 250 μm) with ˜2 μL of a 25 mg mL-l solution of DiPhyPC in hexane. After adding recording buffer (0.01 M KCl to 1.00 M KCl buffered with HEPES, pH=7.4) to both compartments of the bilayer setup, we “painted” a solution of 20 mg mL-l DiPhyPC in n-decane over the pore by using a paint brush with a fine tip. We followed the thinning of the decane droplet to form a planar bilayer by monitoring the capacitance of the bilayer. After verifying that bilayers were stable for several minutes (in the range of ±200 mV applied voltage) and that the capacitances were above 80-90 pF, gA was added (4-8 μL from 1 ng mL-l in ethanol), derivatives 1 or 2 (2-10 μL from 100 ng mL-l in ethanol), or derivative 3 (4-10 μL from 100 ng mL-l in ethanol) directly to the bilayer chambers.
Ion channel measurements: We performed single channel recordings in “voltage clamp mode” using Ag/AgCl electrodes (Warner Instruments) in each compartment of the bilayer chambers. Data acquisition and storage was carried out using custom software in combination with either an EPC-7 patch clamp amplifier from List Medical Electronic (set at a gain of 100 mV pA-1 and a filter cutoff frequency of 3 kHz) or a Geneclamp 500 amplifier from Axon Instruments (with a CV-5B 100GU headstage, set at a gain of 100 mV pA-1 and filter cutoff frequency of 1 kHz). We used the EPC-7 amplifier for most folded bilayers and the Geneclamp 500 amplifier for most painted bilayers. The data acquisition boards for both amplifiers were set to a sampling frequency of 15 kHz. All current traces shown in the figures were further filtered using a digital Gaussian low-pass filter with a cutoff frequency of 30 Hz. The current traces we used to generate all data that was recorded at applied potentials s 50 mV were filtered at 10 Hz.
We performed the analysis of the single channel current traces by computing histograms of the currents from the original current-time traces with ClampFit 9.2 software from Axon Instruments. From these histograms we extracted the main current values by fitting a Gaussian function to the peaks in the histograms. […] Single channel conductances reported in this paper always refer to the main conductance state (i.e. to the dominant peaks in the current histograms).

[4] = as above; conditions: 20 mM KCl plus 10 mM KOH

taurinyl gramicidate [compound 2]
Single-channel conductance γ in negatively charged bilayers [1]: 24.4±0.5 pS
increase of the relative ratio of conductance of 2-2 to gA-gA versus purely zwitterionic lipids [2]: 10%
Single-channel conductance γ ([3]; 0.01 M KCl, homodimers): 4.3 ± 0.3 pS
ratio between the conductance of 2-2 and gA-gA ([3]; 0.02 M KCl, 100 mV applied potential): 1.4
ratio between the conductance of 2-2 and gA-gA ([3]; 0.02 M KCl, 200 mV applied potential): 1.5
conductance compared with gA-gA at pH 7.4 ([3]; 20 mM KCl, DiPhyPC): significantly larger
γ at pH 7.4 ([3]; 20 mM KCl, DiPhyPC bilayers, homodimers): 5.8 ± 0.1 pS
overall conductance of heterodimeric pore of gA and 2, with 2 at the entrance of the pore ([3]; 0.02 M KCl, DiPhyPC, transmembrane potentials above 100 mV): approximately the same as that of homodimeric pores from 2
Single-channel conductance γ ([3]; 0.10 M KCl, homodimers): 12.6 ± 0.4 pS
γ-ratio to gA-gA ([3]; 0.10 M KCl): 1.2
Single-channel conductance γ ([3]; 1.00 M KCl, homodimers): 21.5 ± 0.3 pS
γ-ratio to gA-gA ([3]; 1.00 M KCl): 1.1
current as share of the estimated maximum, mass transport limited current (3 pA) ([3]; 200 mV applied potential, 0.02 M KCl): ~30%
difference in single channel conductance compared to gA ([3]; approximately 1.00 M KCl): < 10%
conductance compared with gA-gA at pH 12 ([4]; DiPhyPC): significantly larger
γ at pH 12 ([4]; DiPhyPC bilayers, homodimers): 9.8 ± 0.2 pS
